Data published in patent US9957247B2, “SecA inhibitors and methods of making and using thereof” (Georgia State University Research Foundation, Inc., priority 2012, dated 2018).
≈ marks a conversion by molar mass, not a printed value. Where two headings read alike, the source gives them in different places.

Assays:
EcSecA [1] = target: T1, EcSecA (Escherichia coli, UniProt P10408); experiment: biochemical; set-up: species or system E. coli; details: IC50, Intrinsic ATPase, Table 1, full-length EcSecA
Target sequence in this assay (P10408 whole entry): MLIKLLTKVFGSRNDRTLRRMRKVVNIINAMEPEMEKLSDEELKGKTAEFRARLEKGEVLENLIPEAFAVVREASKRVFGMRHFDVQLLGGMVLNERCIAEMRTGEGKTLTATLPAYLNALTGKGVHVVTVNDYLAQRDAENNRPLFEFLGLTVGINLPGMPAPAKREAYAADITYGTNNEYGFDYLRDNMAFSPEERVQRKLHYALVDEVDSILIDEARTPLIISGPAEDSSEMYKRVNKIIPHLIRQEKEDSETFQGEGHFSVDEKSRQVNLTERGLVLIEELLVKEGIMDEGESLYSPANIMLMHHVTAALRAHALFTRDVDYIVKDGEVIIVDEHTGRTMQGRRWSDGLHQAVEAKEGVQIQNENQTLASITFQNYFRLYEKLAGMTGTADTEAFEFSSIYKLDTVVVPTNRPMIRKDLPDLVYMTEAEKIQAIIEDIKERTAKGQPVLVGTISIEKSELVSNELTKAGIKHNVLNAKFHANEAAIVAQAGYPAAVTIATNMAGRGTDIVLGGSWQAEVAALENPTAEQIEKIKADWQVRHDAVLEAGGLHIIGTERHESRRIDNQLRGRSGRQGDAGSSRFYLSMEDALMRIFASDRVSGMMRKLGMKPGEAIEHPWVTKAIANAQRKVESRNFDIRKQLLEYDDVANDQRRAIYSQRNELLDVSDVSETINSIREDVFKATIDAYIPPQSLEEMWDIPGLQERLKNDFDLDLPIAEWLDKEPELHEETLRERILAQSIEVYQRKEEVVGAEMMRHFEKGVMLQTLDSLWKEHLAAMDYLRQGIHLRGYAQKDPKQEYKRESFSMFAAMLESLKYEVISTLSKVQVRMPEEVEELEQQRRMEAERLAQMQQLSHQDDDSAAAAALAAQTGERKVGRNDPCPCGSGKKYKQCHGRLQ

S. aureus N315 = experiment: Bacteriostatic effect, S. aureus N315; details: Staphylococcus aureus, N315, read-out: Bacteriostatic effect, MIC, S. aureus N315
MtbSecA = MtbSecA (Mycobacterium tuberculosis, UniProt P9WGP5); experiment: cell-based
S. aureus Mu50 = experiment: Bacteriostatic effect, S. aureus Mu50; details: Staphylococcus aureus
BsSecA2 = details: read-out: IC50, Intrinsic ATPase, BsSecA2; Table 1
[2] = tested on: secretion of α-hemolysin, enterotoxin B and TSST-1 by S. aureus Mu50; type: cell-based
EcSecA N68 = EcSecA N68 (Escherichia coli, UniProt P10408); experiment: biochemical; type: biochemical, E. coli
BsSecA [3] = target: T2, BsSecA (Bacillus subtilis, UniProt P28366); experiment: biochemical; type: biochemical, B. subtilis; details: for Effect on the intrinsic ATPase activity of BsSecA: Example 1
S. aureus 6538 = experiment: Bacteriostatic effect, S. aureus 6538; details: Staphylococcus aureus, 6538, read-out: Bacteriostatic effect, MIC, S. aureus 6538
[4] = tested on: S. aureus deletion strains (NorA−, MepA−) and strains (NorA++, MepA++) with over-expressed efflux pumps; experiment: Antimicrobial effect with deletion or over expression of efflux pumps in S. aureus
[5] = Bactericidal effect in the dark and under light (photooxidation); type: cell-based; details: for Effect of light on the bactericidal effect: under light versus dark
BaSecA1 = BaSecA1 (Bacillus anthracis, UniProt Q81X26); experiment: cell-based; details: IC50, Ion Channel activity, BGaSecA 1
BsSecA [6] = target: T2, BsSecA; experiment: cell-based; set-up: species or system B. subtilis
PaSecA = PaSecA (Pseudomonas aeruginosa, UniProt Q9LCT3); experiment: cell-based; type: cell-based
SaSecA2 = target: T3, SaSecA2 (Staphylococcus aureus, UniProt Q2FUW6); experiment: ATPase activity assay (malachite green), SaSecA2
T3 sequence (Q2FUW6 1-796): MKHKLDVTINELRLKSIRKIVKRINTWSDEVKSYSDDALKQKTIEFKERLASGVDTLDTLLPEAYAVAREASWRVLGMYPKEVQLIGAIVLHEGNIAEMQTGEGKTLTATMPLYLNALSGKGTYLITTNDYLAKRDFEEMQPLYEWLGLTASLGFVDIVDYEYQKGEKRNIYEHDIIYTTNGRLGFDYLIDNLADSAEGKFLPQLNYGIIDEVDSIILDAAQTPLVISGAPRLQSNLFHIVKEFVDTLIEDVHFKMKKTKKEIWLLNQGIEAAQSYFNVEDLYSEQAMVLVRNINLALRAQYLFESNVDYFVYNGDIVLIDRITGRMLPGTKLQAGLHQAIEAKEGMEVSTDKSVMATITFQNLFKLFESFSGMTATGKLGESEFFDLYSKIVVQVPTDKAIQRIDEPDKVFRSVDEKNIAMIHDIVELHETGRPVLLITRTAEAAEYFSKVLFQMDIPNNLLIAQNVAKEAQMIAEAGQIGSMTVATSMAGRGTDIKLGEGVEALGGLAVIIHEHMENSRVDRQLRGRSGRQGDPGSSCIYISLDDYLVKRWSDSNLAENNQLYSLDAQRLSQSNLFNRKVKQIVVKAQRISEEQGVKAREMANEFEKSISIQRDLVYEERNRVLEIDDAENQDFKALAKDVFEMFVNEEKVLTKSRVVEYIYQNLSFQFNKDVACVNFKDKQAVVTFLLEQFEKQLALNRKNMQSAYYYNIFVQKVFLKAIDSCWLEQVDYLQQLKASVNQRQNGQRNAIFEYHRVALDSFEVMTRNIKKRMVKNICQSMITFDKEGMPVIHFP

EcSecA [7] = target: T1, EcSecA; experiment: biochemical; details: IC50, Protein Translocation, Table 1
Target sequence in this assay (P0AG99 whole entry): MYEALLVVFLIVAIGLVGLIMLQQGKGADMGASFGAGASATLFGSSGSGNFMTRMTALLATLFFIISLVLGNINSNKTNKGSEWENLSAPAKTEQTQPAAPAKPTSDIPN
Target sequence in this assay (P10408 whole entry): as the sequence (P10408 whole entry) above
Target sequence in this assay (P0AGA2 whole entry, further chain): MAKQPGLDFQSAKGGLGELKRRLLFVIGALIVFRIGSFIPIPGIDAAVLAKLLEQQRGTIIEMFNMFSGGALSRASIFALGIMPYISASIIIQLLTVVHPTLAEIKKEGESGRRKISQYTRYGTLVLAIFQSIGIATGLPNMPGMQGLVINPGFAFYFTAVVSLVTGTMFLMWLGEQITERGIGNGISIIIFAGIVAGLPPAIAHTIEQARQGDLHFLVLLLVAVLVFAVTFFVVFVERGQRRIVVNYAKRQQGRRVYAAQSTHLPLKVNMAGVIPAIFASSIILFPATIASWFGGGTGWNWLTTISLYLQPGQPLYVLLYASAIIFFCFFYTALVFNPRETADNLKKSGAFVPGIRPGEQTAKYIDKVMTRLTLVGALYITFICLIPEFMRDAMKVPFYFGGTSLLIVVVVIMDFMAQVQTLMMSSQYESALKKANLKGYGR
Target sequence in this assay (P0AG96 whole entry, further chain): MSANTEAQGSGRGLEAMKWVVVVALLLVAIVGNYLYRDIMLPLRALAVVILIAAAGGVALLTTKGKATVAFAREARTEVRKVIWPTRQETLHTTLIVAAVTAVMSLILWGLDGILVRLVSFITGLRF

B. anthracis Sterne = experiment: microbe, parasite or virus in culture; type: cell-based; details: Bacillus anthracis, read-out: Bacteriostatic MIC95, B. anthracis Sterne
S. aureus Mu3 = experiment: Bacteriostatic effect, S. aureus Mu3; details: Staphylococcus aureus, MU3, read-out: Bacteriostatic effect, MIC, S. aureus Mu3
EcSecA [8] = target: T1, EcSecA; experiment: biochemical; details: IC50, Translocation ATPase, Table 1
Target sequence in this assay (P0AG99 whole entry): as the sequence (P0AG99 whole entry) above
Target sequence in this assay (P10408 whole entry): as the sequence (P10408 whole entry) above
Target sequence in this assay (P0AGA2 whole entry, further chain): as the sequence (P0AGA2 whole entry, further chain) above
Target sequence in this assay (P0AG96 whole entry, further chain): as the sequence (P0AG96 whole entry, further chain) above

S. aureus 8325-4 = experiment: Bacteriostatic effect, S. aureus 8325-4 (WT); details: Staphylococcus aureus, 83254, read-out: Bacteriostatic effect, MIC, WT 8325-4
SpSecA = SpSecA (Streptococcus pyogenes, UniProt Q99Y96); type: cell-based; details: read-out: IC50, Ion Channel activity, SpSecA
EcSecA [9] = target: T1, EcSecA; experiment: cell-based
Target sequence in this assay (P10408 whole entry): as the sequence (P10408 whole entry) above

MsSecA = MsSecA (Mycolicibacterium smegmatis, UniProt P71533); experiment: SecA-liposomes ion-channel activity in oocytes, MsSecA; type: cell-based; details: Table 1
[10] = tested on: SecA (S. pyogenes, S. aureus, and E. coli); experiment: Oocyte assay, inhibition of SecA; details: read-out: IC50, inhibiting SecA in the oocyte assay
B. subtilis 168 [11] = experiment: Bacteriostatic effect, liquid microdilution, B. subtilis 168; type: cell-based; details: Bacillus subtilis, Example 2
EcSecA [12] = type: biochemical, E. coli
S. pyogenes, MGAS5005 = experiment: MIC95, S. pyogenes MGAS5005; type: cell-based; details: Streptococcus pyogenes, MGAS5005, read-out: MIC95, S. pyogenes MGAS5005
F1F0-proton ATPase = F1F0-proton ATPase (Escherichia coli, UniProt P0ABB0+P0ABB4); experiment: Proton ATPase activity, reconstituted liposomes; type: biochemical, E. coli
Experimental: The N-terminal catalytic domain of SecA from E. coli (EcN68) was overexpressed from pIMBB28. EcN68 was used for the early and initial screening because it has higher intrinsic activity and is more sensitive to inhibitors. […] SecA proteins were purified as previously described. F1F0-proton ATPase-enriched membrane of E. coli strain KY7485 was prepared as described in the literature. F1F0-proton ATPase was partially purified by sucrose-gradient fractionation and then reconstituted into liposomes by dialysis. Non-radiolabeled and [^35S]-labeled proOmpA were purified as previously described. SecA-depleted BA13 membrane vesicles were prepared as described in the literature,[32] and washed with 6M urea to reduce endogenous ATPase activity.

B. subtilis 168 [13] = experiment: Bactericidal effect assay, B. subtilis 168; type: cell-based
EcSecA [14] = target: T1, EcSecA; details: read-out: IC50, translocation ATPase activity of EcSecA; Example 1
Target sequence in this assay (P0AG99 whole entry): as the sequence (P0AG99 whole entry) above
Target sequence in this assay (P10408 whole entry): as the sequence (P10408 whole entry) above
Target sequence in this assay (P0AGA2 whole entry, further chain): as the sequence (P0AGA2 whole entry, further chain) above
Target sequence in this assay (P0AG96 whole entry, further chain): as the sequence (P0AG96 whole entry, further chain) above

EcSecA [15] = target: T1, EcSecA; details: read-out: IC50, membrane ATPase activity of EcSecA; Example 1
Target sequence in this assay (P0AG99 whole entry): as the sequence (P0AG99 whole entry) above
Target sequence in this assay (P10408 whole entry): as the sequence (P10408 whole entry) above
Target sequence in this assay (P0AGA2 whole entry, further chain): as the sequence (P0AGA2 whole entry, further chain) above
Target sequence in this assay (P0AG96 whole entry, further chain): as the sequence (P0AG96 whole entry, further chain) above

EcSecA [16] = target: T1, EcSecA; details: read-out: IC50, in vitro protein translocation of proOmpA; Example 1
Target sequence in this assay (P0AG99 whole entry): as the sequence (P0AG99 whole entry) above
Target sequence in this assay (P10408 whole entry): as the sequence (P10408 whole entry) above
Target sequence in this assay (P0AGA2 whole entry, further chain): as the sequence (P0AGA2 whole entry, further chain) above
Target sequence in this assay (P0AG96 whole entry, further chain): as the sequence (P0AG96 whole entry, further chain) above

EcSecA [17] = tested on: EcSecA
[18] = wild type, NorA−/MepA− and NorA++/MepA++ strains
[19] = IC50, Ion Channel activity, PASecA, Table 1
[20] = IC50, ATPase activity, SaSecA2, Table 7
[21] = IC50, Intrinsic ATPase, SaSecA2, Table 1

T2 sequence (P28366 whole entry): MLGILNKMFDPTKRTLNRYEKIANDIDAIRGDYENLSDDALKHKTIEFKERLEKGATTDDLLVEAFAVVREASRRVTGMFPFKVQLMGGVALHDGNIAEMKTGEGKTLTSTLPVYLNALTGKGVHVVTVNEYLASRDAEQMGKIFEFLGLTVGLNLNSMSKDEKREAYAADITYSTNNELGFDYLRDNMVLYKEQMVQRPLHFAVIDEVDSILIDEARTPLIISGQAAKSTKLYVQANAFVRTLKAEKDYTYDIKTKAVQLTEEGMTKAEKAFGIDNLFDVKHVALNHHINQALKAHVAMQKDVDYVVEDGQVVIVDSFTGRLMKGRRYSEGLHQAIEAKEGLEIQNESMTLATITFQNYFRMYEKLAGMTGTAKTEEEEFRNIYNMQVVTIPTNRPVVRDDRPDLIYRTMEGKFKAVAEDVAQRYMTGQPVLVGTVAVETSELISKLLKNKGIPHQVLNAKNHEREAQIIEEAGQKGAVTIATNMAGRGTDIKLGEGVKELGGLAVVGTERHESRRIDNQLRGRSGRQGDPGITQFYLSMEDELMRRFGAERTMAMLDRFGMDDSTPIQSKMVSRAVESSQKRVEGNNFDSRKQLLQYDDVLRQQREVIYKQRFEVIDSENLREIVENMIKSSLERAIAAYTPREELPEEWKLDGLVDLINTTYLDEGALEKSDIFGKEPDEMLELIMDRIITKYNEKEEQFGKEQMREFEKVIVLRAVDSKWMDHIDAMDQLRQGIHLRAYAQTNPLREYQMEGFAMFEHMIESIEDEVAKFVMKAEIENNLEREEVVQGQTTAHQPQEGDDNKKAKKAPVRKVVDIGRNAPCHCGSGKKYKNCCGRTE
Sequence of PaSecA (Q9LCT3 whole entry): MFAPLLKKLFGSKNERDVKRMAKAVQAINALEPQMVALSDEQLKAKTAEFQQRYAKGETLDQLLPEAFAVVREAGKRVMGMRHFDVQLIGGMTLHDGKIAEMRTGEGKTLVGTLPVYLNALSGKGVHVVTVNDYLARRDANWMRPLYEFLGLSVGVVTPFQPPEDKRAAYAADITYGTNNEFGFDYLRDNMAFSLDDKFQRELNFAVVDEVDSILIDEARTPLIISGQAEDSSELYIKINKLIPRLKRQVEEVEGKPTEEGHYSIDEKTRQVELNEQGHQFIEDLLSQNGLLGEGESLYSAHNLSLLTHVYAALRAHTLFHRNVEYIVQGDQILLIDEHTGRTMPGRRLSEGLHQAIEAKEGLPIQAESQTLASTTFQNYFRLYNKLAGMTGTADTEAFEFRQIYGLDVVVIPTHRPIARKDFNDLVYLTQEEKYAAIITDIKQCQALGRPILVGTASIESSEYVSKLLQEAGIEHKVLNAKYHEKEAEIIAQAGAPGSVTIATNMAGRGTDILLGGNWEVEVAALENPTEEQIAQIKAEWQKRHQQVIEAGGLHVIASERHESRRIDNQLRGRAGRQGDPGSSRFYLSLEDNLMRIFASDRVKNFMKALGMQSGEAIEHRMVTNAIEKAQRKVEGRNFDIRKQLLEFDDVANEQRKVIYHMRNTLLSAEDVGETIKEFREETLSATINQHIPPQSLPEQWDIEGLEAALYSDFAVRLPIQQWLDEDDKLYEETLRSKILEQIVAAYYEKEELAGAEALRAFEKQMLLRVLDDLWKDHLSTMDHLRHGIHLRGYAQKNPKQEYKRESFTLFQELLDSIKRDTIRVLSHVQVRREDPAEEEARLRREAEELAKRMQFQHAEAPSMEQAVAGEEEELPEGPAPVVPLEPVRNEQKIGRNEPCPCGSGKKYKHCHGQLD

## Oc1ccc2c(c1)Oc1cc(O)ccc1C2C1CCCC1 [SCA-41]
EcSecA [1]
  IC50: 30 µM
S. aureus N315
  MIC: 14.1 µg/mL (≈ 49.9 µM)
MtbSecA
  IC50: 3.2 µM
S. aureus Mu50; MU50, read-out: Bacteriostatic MIC95, S. aureus Mu50, Table 2
  MIC: 1.7 µg/mL
S. aureus Mu50; MU50, read-out: Bacteriostatic effect MIC, S. aureus Mu50, Table 10 and Example 4
  MIC: 8.8 µg/mL
S. aureus Mu50; MU50, read-out: Bacteriostatic effect, MIC, S. aureus Mu50, Table 8
  MIC: 8.8 µg/mL
S. aureus Mu50; MU50, read-out: MIC95 against drug resistant S. aureus Mu50
  MIC: 1.7 µM
BsSecA2
  IC50: 30 µM
[2]
  Amount of α-hemolysin, enterotoxin B, and TSST-1 in the supernatant: significantly decreased
EcSecA N68
  IC50: 8 µM
BsSecA [3]
  IC50: 30 µM
S. aureus 6538
  MIC: 10.6 µg/mL (≈ 37.5 µM)
[4]
  Change of MIC on overexpression or deletion of NorA or MepA: did not significantly change
[4]; [18]
  Bactericidal (killing) effect with over expression of efflux pumps: not attenuated
  MIC (bacteriostatic) with over expression of efflux pumps: did not increase
[5]
  Effect of light on the bactericidal effect: not affected by light
BaSecA1
  IC50: 3.8 µM
BsSecA [6]; IC50, Ion Channel activity, BsSecA, Table 1
  IC50: 3 µM
PaSecA; [19]
  IC50: 3600 nM
SaSecA2; [20]
  IC50: 32.5 µM
SaSecA2; [21]
  IC50: 6 µM
EcSecA [7]
  IC50: 55 µM
B. anthracis Sterne
  MIC: 1.1 µg/mL (≈ 3.9 µM)
S. aureus Mu3
  MIC: 14.1 µg/mL (≈ 49.9 µM)
EcSecA [8]
  IC50: 15 µM
S. aureus 8325-4
  MIC: 11.8 µg/mL (≈ 41.8 µM)
SpSecA
  IC50: 3000 nM
EcSecA [9]
  IC50: 3.4 µM
MsSecA
  IC50: 3.5 µM

## O=C(O)c1c(Cl)c(Cl)c(Cl)c(Cl)c1-c1c2cc(I)c(=O)c(I)c-2oc2c(I)c(O)c(I)cc12 [RB, Rose Bengal]
[10]
  IC50: 400 nM
S. aureus N315
  MIC: 19.1 µg/mL (≈ 19.6 µM)
S. aureus Mu50; MU50, read-out: Bacteriostatic MIC95, S. aureus Mu50
  MIC: 40.7 µg/mL
S. aureus Mu50; MU50, read-out: Bacteriostatic effect MIC, S. aureus Mu50
  MIC: 50.8 µg/mL
S. aureus Mu50; MU50, read-out: Bacteriostatic effect, MIC, S. aureus Mu50
  MIC: 50.8 µg/mL
BsSecA2
  IC50: 15 µM
B. subtilis 168 [11]
  MIC: 100 µM (≈ 97.4 µg/mL)
EcSecA [12]; at high ATP concentrations
  Mode of inhibition against ATP: competitive inhibition
BsSecA [3]
  Effect on the intrinsic ATPase activity of BsSecA: inhibitory effects
S. pyogenes, MGAS5005
  MIC: 6.25 µM (≈ 6.09 µg/mL)
S. aureus 6538
  MIC: 38.2 µg/mL (≈ 39.2 µM)
[5]; dark
  Bactericidal effect in the dark: little bactericidal effect
[5]
  Effect of light on the bactericidal effect: dramatically increased
F1F0-proton ATPase
  IC50: ~10 µM
PaSecA; FIG. 3C
  Inhibition kinetics, channel activity, PaSecA-liposomes: non-competitive inhibition
PaSecA; [19]
  IC50: 300 nM
PaSecA; Rose Bengal IC50, channel activity, PaSecA, +SecYEG + SecDF•C
  IC50: 2000 nM
PaSecA; Rose Bengal IC50, channel activity, PaSecA, BA13, BA13 (first value of BA13/Re-13)
  IC50: 5100 nM
PaSecA; Rose Bengal IC50, channel activity, PaSecA, Liposome + SecYEG
  IC50: 1100 nM
PaSecA; Rose Bengal IC50, channel activity, PaSecA, Liposomes
  IC50: 300 nM
PaSecA; Rose Bengal IC50, channel activity, PaSecA, Re-13, Re-13 (second value of BA13/Re-13)
  IC50: 300 nM
SaSecA2; [20]
  IC50: 2.5 µM
SaSecA2; [21]
  IC50: 1 µM
B. anthracis Sterne
  MIC: 12.2 µg/mL (≈ 12.5 µM)
S. aureus Mu3
  MIC: 38.2 µg/mL (≈ 39.2 µM)
S. aureus 8325-4
  MIC: 13.2 µg/mL (≈ 13.6 µM)
SpSecA; Table 1
  IC50: 900 nM
B. subtilis 168 [13]; 20 μM, one hour, FIG. 2
  Bactericidal effect, kill of B. subtilis 168: little effect
B. subtilis 168 [13]; 100 μM, one-hour treatment
  Decrease of cell survival (CFU): ~8 log units

## O.O=C([O-])c1ccccc1-c1c2cc(I)c(=O)c(I)c-2oc2c(I)c([O-])c(I)cc12.[Na+].[Na+] [EB, Erythrosin B]
EcSecA [14]
  IC50: 10 to 20 µM
EcSecA [15]
  IC50: 10 to 20 µM
EcSecA [12]; at low ATP concentrations
  Mode of inhibition against ATP: competitive inhibitors
EcSecA N68; Example 1, fluorescein analogs, read-out: IC50, EcN68 SecA ATPase (unregulated ATPase)
  IC50: 2 µM
BsSecA [3]
  Effect on the intrinsic ATPase activity of BsSecA: inhibitory effects
F1F0-proton ATPase; Example 1, read-out: IC50 against F1F0-proton ATPase
  IC50: ~30 µM
EcSecA [16]
  IC50: 4 µM

## Oc1ccc2c(c1)Oc1cc(O)ccc1C2C1CCCCC1 [Compound 22d, 9-Cyclohexyl-9H-xanthene-3,6-diol]
B. subtilis 168 [11]
  MIC: 22 µM (≈ 6.52 µg/mL)
EcSecA [17]
  Potency against EcSecA over BsSecA, channel activity: about 2 fold
BsSecA [6]; Ion channel, IC50, BsSecA, Table 5
  IC50: 6.6 µM
EcSecA [9]
  IC50: 2.8 µM
